Tests used:
Assay in all cases: Cell proliferation assay (ATPlite), drug with vs without cobicistat
Type in all cases: cell-based
[1] = system: BT-549; conditions: BT-549 cell line; 120 hours incubation
How it was run: (§1)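 Proliferation measured by ATP content (ATPlite) following a 120 h treatment at 37 °C in 5% CO2. Top concentration 3.16×10^−5 M, lowest 3.16×10^−9 M, nine points, duplicate wells, final DMSO 0.4%.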

[2] = system: CAL 27; conditions: CAL 27 cell line; 120 hours incubation
How it was run: as §1

[3] = system: A-498; conditions: A-498 cell line; 120 hours incubation
How it was run: as §1

[4] = system: A388; conditions: A388 cell line; 120 hours incubation
How it was run: as §1

[5] = system: ACHN; conditions: ACHN cell line; 120 hours incubation
How it was run: as §1

[6] = system: MCF7; conditions: MCF7 cell line; 120 hours incubation
How it was run: as §1

[7] = system: AU-565; conditions: AU-565 cell line; 120 hours incubation
How it was run: as §1

[8] = system: DoTc2 4510; conditions: DoTc2 4510 cell line; 120 hours incubation
How it was run: as §1

[9] = system: 786-O; conditions: 786-O cell line; 120 hours incubation
How it was run: as §1

[10] = system: LNCaP FGC; conditions: LNCaP FGC cell line; 120 hours incubation
How it was run: as §1

[11] = system: SNU-C2B; conditions: SNU-C2B cell line; 120 hours incubation
How it was run: as §1

[12] = system: SJCRH30; conditions: SJCRH30 cell line; 120 hours incubation
How it was run: as §1

[13] = system: BxPC-3; conditions: BxPC-3 cell line; 120 hours incubation
How it was run: as §1

[14] = system: HCT 116; conditions: HCT 116 cell line; 120 hours incubation
How it was run: as §1

[15] = system: HCT-15; conditions: HCT-15 cell line; 120 hours incubation
How it was run: as §1

[16] = system: KU812; conditions: KU812 cell line; 120 hours incubation
How it was run: as §1

[17] = system: J82; conditions: J82 cell line; 120 hours incubation
How it was run: as §1

[18] = system: Daoy; conditions: Daoy cell line; 120 hours incubation
How it was run: as §1

[19] = system: U-87 MG; conditions: U-87 MG cell line; 120 hours incubation
How it was run: as §1

[20] = system: AN3 CA; conditions: AN3 CA cell line; 120 hours incubation
How it was run: as §1

[21] = system: DLD-1; conditions: DLD-1 cell line; 120 hours incubation
How it was run: as §1

[22] = system: OVCAR-3; conditions: OVCAR-3 cell line; 120 hours incubation
How it was run: as §1

[23] = system: CCRF-CEM; conditions: CCRF-CEM cell line; 120 hours incubation
How it was run: as §1

[24] = system: LoVo; conditions: LoVo cell line; 120 hours incubation
How it was run: as §1

[25] = system: SUP-T1; conditions: SUP-T1 cell line; 120 hours incubation
How it was run: as §1

[26] = system: COLO 205; conditions: COLO 205 cell line; 120 hours incubation
How it was run: as §1

[27] = system: 769-P; conditions: 769-P cell line; 120 hours incubation
How it was run: as §1

[28] = system: SR; conditions: SR cell line; 120 hours incubation
How it was run: as §1

[29] = system: T24; conditions: T24 cell line; 120 hours incubation
How it was run: as §1

[30] = system: MG-63; conditions: MG-63 cell line; 120 hours incubation
How it was run: as §1

SMILES | Fold change in IC50 (IC50 [Drug + Cobicistat]/IC50 [Drug]) [1] | Fold change in IC50 (IC50 [Drug + Cobicistat]/IC50 [Drug]) [2] | Fold change in IC50 (IC50 [Drug + Cobicistat]/IC50 [Drug]) [3] | Fold change in IC50 (IC50 [Drug + Cobicistat]/IC50 [Drug]) [4] | Fold change in IC50 (IC50 [Drug + Cobicistat]/IC50 [Drug]) [5] | Fold change in IC50 (IC50 [Drug + Cobicistat]/IC50 [Drug]) [6] | Fold change in IC50 (IC50 [Drug + Cobicistat]/IC50 [Drug]) [7] | Fold change in IC50 (IC50 [Drug + Cobicistat]/IC50 [Drug]) [8] | Fold change in IC50 (IC50 [Drug + Cobicistat]/IC50 [Drug]) [9] | Fold change in IC50 (IC50 [Drug + Cobicistat]/IC50 [Drug]) [10] | Fold change in IC50 (IC50 [Drug + Cobicistat]/IC50 [Drug]) [11] | Fold change in IC50 (IC50 [Drug + Cobicistat]/IC50 [Drug]) [12] | Fold change in IC50 (IC50 [Drug + Cobicistat]/IC50 [Drug]) [13] | Fold change in IC50 (IC50 [Drug + Cobicistat]/IC50 [Drug]) [14] | Fold change in IC50 (IC50 [Drug + Cobicistat]/IC50 [Drug]) [15] | Fold change in IC50 (IC50 [Drug + Cobicistat]/IC50 [Drug]) [16] | Fold change in IC50 (IC50 [Drug + Cobicistat]/IC50 [Drug]) [17] | Fold change in IC50 (IC50 [Drug + Cobicistat]/IC50 [Drug]) [18] | Fold change in IC50 (IC50 [Drug + Cobicistat]/IC50 [Drug]) [19] | Fold change in IC50 (IC50 [Drug + Cobicistat]/IC50 [Drug]) [20] | other results
CC(=O)O[C@H]1C(=O)[C@@]2(C)[C@H]([C@H](OC(=O)c3ccccc3)[C@]3(O)C[C@H](OC(=O)[C@H](O)[C@@H](NC(=O)c4ccccc4)c4ccccc4)C(C)=C1C3(C)C)[C@]1(OC(C)=O)CO[C@@H]1C[C@@H]2O [paclitaxel] | 1.2 fold | 2.0 fold | 2.8 fold | 2.7 fold | 2.5 fold | 3.3 fold | 2.7 fold | 3.4 fold | 3.0 fold | 2.5 fold | 3.0 fold | 1.6 fold | 3.2 fold | 1.0 fold | 2.4 fold | 4.6 fold | 2.9 fold | 3.4 fold | 2.2 fold | 2.9 fold | Fold change in IC50 (IC50 [Drug + Cobicistat]/IC50 [Drug]) [21]: 1.9 fold; Fold change in IC50 (IC50 [Drug + Cobicistat]/IC50 [Drug]) [22]: 1.7 fold; Fold change in IC50 (IC50 [Drug + Cobicistat]/IC50 [Drug]) [23]: 2.6 fold; Fold change in IC50 (IC50 [Drug + Cobicistat]/IC50 [Drug]) [24]: 1.3 fold; Fold change in IC50 (IC50 [Drug + Cobicistat]/IC50 [Drug]) [25]: 3.5 fold; Fold change in IC50 (IC50 [Drug + Cobicistat]/IC50 [Drug]) [26]: 3.0 fold; Fold change in IC50 (IC50 [Drug + Cobicistat]/IC50 [Drug]) [27]: 2.9 fold; Fold change in IC50 (IC50 [Drug + Cobicistat]/IC50 [Drug]) [28]: 1.8 fold; Fold change in IC50 (IC50 [Drug + Cobicistat]/IC50 [Drug]) [29]: 4.4 fold; Fold change in IC50 (IC50 [Drug + Cobicistat]/IC50 [Drug]) [30]: 2.4 fold
Cc1nc(Nc2ncc(C(=O)Nc3c(C)cccc3Cl)s2)cc(N2CCN(CCO)CC2)n1 [dasatinib] | 1.5 fold | 1.3 fold | 1.4 fold | 1.9 fold | 2.8 fold | 1.9 fold | 8.4 fold | 3.0 fold | 1.6 fold | 1.3 fold | 0.9 fold | 1.4 fold | 2.2 fold | 3.4 fold | 2.6 fold | 1.5 fold | 2.1 fold | 3.2 fold | 1.1 fold | 1.2 fold | Fold change in IC50 (IC50 [Drug + Cobicistat]/IC50 [Drug]) [21]: 1.4 fold; Fold change in IC50 (IC50 [Drug + Cobicistat]/IC50 [Drug]) [22]: 1.6 fold; Fold change in IC50 (IC50 [Drug + Cobicistat]/IC50 [Drug]) [23]: 1.3 fold; Fold change in IC50 (IC50 [Drug + Cobicistat]/IC50 [Drug]) [24]: 1.0 fold; Fold change in IC50 (IC50 [Drug + Cobicistat]/IC50 [Drug]) [25]: 1.4 fold; Fold change in IC50 (IC50 [Drug + Cobicistat]/IC50 [Drug]) [26]: 1.2 fold; Fold change in IC50 (IC50 [Drug + Cobicistat]/IC50 [Drug]) [27]: 3.8 fold; Fold change in IC50 (IC50 [Drug + Cobicistat]/IC50 [Drug]) [28]: 1.9 fold; Fold change in IC50 (IC50 [Drug + Cobicistat]/IC50 [Drug]) [29]: 3.9 fold; Fold change in IC50 (IC50 [Drug + Cobicistat]/IC50 [Drug]) [30]: 2.9 fold
CC[C@]1(O)C[C@H]2CN(CCc3c([nH]c4ccccc34)[C@@](C(=O)OC)(c3cc4c(cc3OC)N(C=O)[C@H]3[C@@](O)(C(=O)OC)[C@H](OC(C)=O)[C@]5(CC)C=CCN6CC[C@]43[C@@H]65)C2)C1 [vincristine] | 2.9 fold | 2.6 fold | 3.2 fold | 3.7 fold | 3.4 fold | 4.8 fold | 3.0 fold | 6.2 fold | 2.5 fold | 3.6 fold | 2.4 fold | 3.5 fold | 4.1 fold | 1.4 fold | 2.1 fold | 3.7 fold | 3.6 fold | 4.6 fold | 3.1 fold | 4.7 fold | Fold change in IC50 (IC50 [Drug + Cobicistat]/IC50 [Drug]) [21]: 2.0 fold; Fold change in IC50 (IC50 [Drug + Cobicistat]/IC50 [Drug]) [22]: 4.0 fold; Fold change in IC50 (IC50 [Drug + Cobicistat]/IC50 [Drug]) [23]: 3.6 fold; Fold change in IC50 (IC50 [Drug + Cobicistat]/IC50 [Drug]) [24]: 1.6 fold; Fold change in IC50 (IC50 [Drug + Cobicistat]/IC50 [Drug]) [25]: 3.6 fold; Fold change in IC50 (IC50 [Drug + Cobicistat]/IC50 [Drug]) [26]: 4.0 fold; Fold change in IC50 (IC50 [Drug + Cobicistat]/IC50 [Drug]) [27]: 3.5 fold; Fold change in IC50 (IC50 [Drug + Cobicistat]/IC50 [Drug]) [28]: 3.6 fold; Fold change in IC50 (IC50 [Drug + Cobicistat]/IC50 [Drug]) [29]: 4.4 fold; Fold change in IC50 (IC50 [Drug + Cobicistat]/IC50 [Drug]) [30]: 3.8 fold

From patent US20180036289A1 (Gilead Sciences, Inc., priority 2016, published 2018)
